Data: patent publication US8487108B2, “Piperidinyl carbamate intermediates for the synthesis of aspartic protease inhibitors” (Vitae Pharmaceuticals, Inc., priority 2005, dated 2013)
pIC50: −log10 of the molar value.

Legend:
[1] = target: T1, plasma renin activity (PRA) in pooled mixed-gender human plasma (Homo sapiens, UniProt P00797); assay: Plasma renin activity (PRA) assay in human plasma; assay type: biochemical
T1 construct: pooled mixed-gender human plasma stabilized with EDTA; from tissue; host or cells: pooled mixed-gender human plasma (EDTA)
T1 sequence (P00797 67-406): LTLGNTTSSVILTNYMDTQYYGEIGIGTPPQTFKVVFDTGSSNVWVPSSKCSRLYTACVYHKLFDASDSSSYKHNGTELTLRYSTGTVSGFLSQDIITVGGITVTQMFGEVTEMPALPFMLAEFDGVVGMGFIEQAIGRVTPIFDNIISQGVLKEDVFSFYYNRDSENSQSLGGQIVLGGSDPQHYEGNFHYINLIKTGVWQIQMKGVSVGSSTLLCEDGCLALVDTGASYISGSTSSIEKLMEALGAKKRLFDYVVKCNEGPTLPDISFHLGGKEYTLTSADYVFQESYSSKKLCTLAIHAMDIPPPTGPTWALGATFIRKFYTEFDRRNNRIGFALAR
Method: Incubations mixtures contain in the final volume of 250 μL 95.5 mM N,N-bis(2-hydroxyethyl)-2-aminoethanesulfonic acid, pH 7.0, 8 mM EDTA, 0.1 mM neomycin sulfate, 1 mg/mL sodium azide, 1 mM phenylmethanesulfonyl fluoride, 2% DMSO and 87.3% of pooled mixed-gender human plasma stabilized with EDTA. For plasma batches with low PRA (less than 1 ng/ml/hr) ˜2 pM of recombinant human renin is added to achieve PRA of 3-4 ng/ml/hr. The cleavage of endogenous angiotensinogen in plasma is carried out at 37° C. for 90 min and the product angiotensin I is measured by competitive radioimmunoassay using DiaSorin PRA kit.

[2] = target: T2, trypsin-activated recombinant human renin (Homo sapiens, UniProt P00797); assay: Renin fluorescence assay (internally quenched peptide substrate); assay type: biochemical
T2 sequence (P00797 67-406): T1 sequence (P00797 67-406)
In short: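 Cleavage of an angiotensinogen-derived DABCYL-quenched peptide by trypsin-activated recombinant human renin (0.2-2 nM final) in 50 mM BES, 150 mM NaCl, 0.25 mg/mL BSA, pH 7.0; compounds 10 μM to 1 nM final. Fluorescence (ex 340/em 495 nm) followed 60-360 min at rt; linear-slope rates give percent inhibition versus uninhibited control.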

Structure (SMILES)	pIC50 ([2]; compounds I*)	pIC50 ([1]; compounds of Formula (XL))	pIC50 ([2]; compounds of Formula (XL))	further results
CNC[C@@H](CC1CCCOC1)NC(=O)N1CCC[C@@H]([C@@H](OCCNC(=O)OC)c2cc(F)cc(Cl)c2)C1 (single isomer, unassigned) [Example L-3c]	–	–	–	pIC50 ([1]; compounds of Formula (L)): > 8.00; pIC50 ([2]; compounds of Formula (L)): > 8.00
CNC[C@@H](CC1CCCOC1)NC(=O)N1CCC[C@@H]([C@@H](OCCNC(=O)OC)c2cc(F)cc(Cl)c2)C1 (single isomer, unassigned) [Example L-3d]	–	–	–	pIC50 ([1]; compounds of Formula (L)): > 7.70; pIC50 ([2]; compounds of Formula (L)): > 7.70
CNC[C@H](C[C@H]1CCC(C)(C)OC1)NC(=O)N1CCC[C@@H]([C@@H](OCCNC(=O)OC)c2cccc(F)c2)C1 [I*-154a, methyl 2-((R)-(3-fluorophenyl)((R)-1-((S)-1-((R)-6,6-dimethyl-tetrahydro-2H-pyran-3-yl)-3-(methylamino)propan-2-ylcarbamoyl)piperidin-3-yl)methoxy)ethylcarbamate]	> 7.70	–	–	–
CNC[C@H](C[C@H]1CCC(C)(C)OC1)NC(=O)N1CCC[C@@H]([C@@H](OCCNC(=O)OC)c2cc(F)cc(F)c2)C1 [I*-155a, methyl 2-((R)-(3,5-difluorophenyl)((R)-1-((S)-1-((R)-6,6-dimethyl-tetrahydro-2H-pyran-3-yl)-3-(methylamino)propan-2-ylcarbamoyl)piperidin-3-yl)methoxy)ethylcarbamate]	> 8.00	–	–	–
CNC[C@H](C[C@H]1CCC(C)(C)OC1)NC(=O)N1CCC[C@@H]([C@@H](OCCNC(=O)OC)c2ccccc2)C1 [I*-156a, methyl 2-((R)—((R)-1-((S)-1-((R)-6,6-dimethyl-tetrahydro-2H-pyran-3-yl)-3-(methylamino)propan-2-ylcarbamoyl)piperidin-3-yl)(phenyl)methoxy)ethylcarbamate]	> 7.70	–	–	–
CNC[C@H](C[C@H]1CCC(C)(C)OC1)NC(=O)N1CCC[C@@H]([C@@H](OCCNC(=O)OC)c2cccc(Cl)c2)C1 [I*-157a, methyl 2-((R)-(3-chlorophenyl)((R)-1-((S)-1-((R)-6,6-dimethyl-tetrahydro-2H-pyran-3-yl)-3-(methylamino)propan-2-ylcarbamoyl)piperidin-3-yl)methoxy)ethylcarbamate]	> 8.00	–	–	–
CNC[C@H](C[C@H]1CCC2(CC2)OC1)NC(=O)N1CCC[C@@H]([C@@H](OCCNC(=O)OC)c2cccc(Cl)c2)C1 [I*-158a, methyl 2-((R)-(3-chlorophenyl)((R)-1-((S)-1-((R)-4-oxaspiro[2.5]octan-6-yl)-3-(methylamino)propan-2-ylcarbamoyl)piperidin-3-yl)methoxy)ethylcarbamate]	> 8.00	–	–	–
CNC[C@H](C[C@H]1CCC2(CC2)OC1)NC(=O)N1CCC[C@@H]([C@@H](OCCNC(=O)OC)c2cccc(F)c2)C1 [I*-159a, methyl 2-((R)-(3-fluorophenyl)((R)-1-((S)-1-((R)-4-oxaspiro[2.5]octan-6-yl)-3-(methylamino)propan-2-ylcarbamoyl)piperidin-3-yl)methoxy)ethylcarbamate]	> 8.00	–	–	–
CNC[C@H](C[C@H]1CCC2(CC2)OC1)NC(=O)N1CCC[C@@H]([C@@H](OCCNC(=O)OC)c2cc(F)cc(F)c2)C1 [I*-160a, methyl 2-((R)-(3,5-difluorophenyl)((R)-1-((S)-1-((R)-4-oxaspiro[2.5]octan-6-yl)-3-(methylamino)propan-2-ylcarbamoyl)piperidin-3-yl)methoxy)ethylcarbamate]	> 9.00	–	–	–
COC(=O)NCCO[C@@H](c1cccc(Cl)c1)[C@@H]1CCCN(C(=O)NC[C@@H](N)C[C@H]2CCCOC2)C1 [XL-1, methyl 2-((R)-((R)-1-((S)-2-amino-3-((R)-tetrahydro-2H-pyran-3-yl)propylcarbamoyl)piperidin-3-yl)(3-chlorophenyl)methoxy)ethylcarbamate]	–	> 8.00	> 8.00	–
COC(=O)NCCO[C@@H](c1cccc(F)c1)[C@@H]1CCCN(C(=O)NC[C@@H](N)C[C@H]2CCCOC2)C1 [XL-2, methyl 2-((R)-((R)-1-((S)-2-amino-3-((R)-tetrahydro-2H-pyran-3-yl)propylcarbamoyl)piperidin-3-yl)(3-fluorophenyl)methoxy)ethylcarbamate]	–	> 7.70	> 8.00	–
COC(=O)NCCO[C@@H](c1cc(F)cc(Cl)c1)[C@@H]1CCCN(C(=O)NC[C@@H](N)C[C@H]2CCCOC2)C1 [XL-3, methyl 2-((R)-((R)-1-((S)-2-amino-3-((R)-tetrahydro-2H-pyran-3-yl)propylcarbamoyl)piperidin-3-yl)(3-chloro-5-fluorophenyl)methoxy)ethylcarbamate]	–	> 8.00	> 8.00	–
COC(=O)NCCO[C@@H](c1cc(F)cc(F)c1)[C@@H]1CCCN(C(=O)NC[C@@H](N)C[C@H]2CCCOC2)C1 [XL-4, methyl 2-((R)-((R)-1-((S)-2-amino-3-((R)-tetrahydro-2H-pyran-3-yl)propylcarbamoyl)piperidin-3-yl)(3,5-difluorophenyl)methoxy)ethylcarbamate]	–	> 8.00	> 8.00	–
COC(=O)NCCO[C@@H](c1cc(Cl)ccc1C)[C@@H]1CCCN(C(=O)NC[C@@H](N)C[C@H]2CCCOC2)C1 [XL-5, methyl 2-((R)-((R)-1-((S)-2-amino-3-((R)-tetrahydro-2H-pyran-3-yl)propylcarbamoyl)piperidin-3-yl)(5-chloro-2-methylphenyl)methoxy)ethylcarbamate]	–	> 9.00	> 9.00	–
COC(=O)NCCO[C@@H](c1cc(F)ccc1C)[C@@H]1CCCN(C(=O)NC[C@@H](N)C[C@H]2CCCOC2)C1 [XL-6, methyl 2-((R)-((R)-1-((S)-2-amino-3-((R)-tetrahydro-2H-pyran-3-yl)propylcarbamoyl)piperidin-3-yl)(5-fluoro-2-methylphenyl)methoxy)ethylcarbamate]	–	> 7.30	> 8.00	–
CN[C@H](CNC(=O)N1CCC[C@@H]([C@@H](OCCNC(=O)OC)c2cc(Cl)ccc2C)C1)C[C@H]1CCCOC1 [XL-8, methyl 2-((R)-(5-chloro-2-methylphenyl)((R)-1-((S)-2-(methylamino)-3-((R)-tetrahydro-2H-pyran-3-yl)propylcarbamoyl)piperidin-3-yl)methoxy)ethylcarbamate]	–	> 8.00	> 9.00	–
